Source: PubChem BioAssay AID608 (Sanford-Burnham Center for Chemical Genomics, 2007)
Active and inactive are the calls of the source. The rule behind the calls is not given here.

Target: Peptidyl-prolyl cis-trans isomerase FKBP1A (Homo sapiens) (UniProt P62942)
Experiment: FKBP12 binders, biophysical, NMR detection (AID 608)
Settings: NMR binding, purified FKBP12

Peptidyl-prolyl cis-trans isomerase FKBP1A (Homo sapiens), sequence (P62942 whole entry, looked up): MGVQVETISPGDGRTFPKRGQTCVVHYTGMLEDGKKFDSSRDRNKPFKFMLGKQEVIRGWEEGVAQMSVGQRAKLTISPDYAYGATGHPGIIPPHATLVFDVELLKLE

SMILES | Kd
Cn1c(O)c(/C=C2\C=CC=N2)c(=O)[nH]c1=O | > 4 mM (inactive)
Cc1cc(C(=O)NC(C)c2ccncc2)no1 (stereo unspecified) | > 4 mM (inactive)
CC(=O)Nc1cnn(Cc2ccc(Br)cc2)c1 | > 4 mM (inactive)
C=C(C)[C@@H]1CC[C@]2(CO)CC[C@]3(C)[C@H](CCC4[C@@]5(C)CC[C@H](O)C(C)(C)C5CC[C@]43C)C12 (stereo partly specified) | > 4 mM (inactive)
c1cc(CNc2ccc3c(c2)OCCO3)ccn1 | > 4 mM (inactive)
c1cc(C(N2CCOCC2)N2CCOCC2)ccn1 | > 4 mM (inactive)
NC(=O)C1CCN(CC2CC=CCC2)CC1 (stereo unspecified) | > 4 mM (inactive)
COCC(=O)Nc1cccc(Br)c1 | > 4 mM (inactive)
O=C(CSc1ncccn1)Nc1nccs1 | > 4 mM (inactive)
COC1=C(OC)C(=O)C(C/C=C(\C)CC/C=C(\C)CC/C=C(\C)CC/C=C(/C)CC/C=C(\C)CC/C=C(\C)CC/C=C(\C)CC/C=C(\C)CC/C=C(\C)CCC=C(C)C)=C(C)C1=O | > 4 mM (inactive)
COc1cc2c(cc1OC)C1(O)C(=O)c3ccc(O)c(C(=O)O)c3OC1CO2 (stereo unspecified) | > 4 mM (inactive)
O=C1CSC(=Nc2ccc(F)cc2)N1 | > 4 mM (inactive)
O=c1ccn([C@@H]2O[C@H](COP(=O)(O)OP(=O)(O)OP(=O)(O)O)[C@@H](O)[C@H]2O)c(=O)[nH]1 | > 4 mM (inactive)
O=C(CSc1ccnc(=O)[nH]1)NCc1ccccc1 | > 4 mM (inactive)
CCC(C)C(=O)OC1[C@@H]2CC3=C4CC(=O)O[C@@H](c5ccoc5)[C@]4(C)CCC3C(C)(C2=O)[C@@H](CC(=O)OC)C1(C)C (stereo partly specified) | > 4 mM (inactive)
C=CC1=C(C)/C(=C/c2[nH]c(Cc3[nH]c(/C=C4\NC(=O)C(C)=C4C=C)c(C)c3CCC(=O)O)c(CCC(=O)O)c2C)NC1=O | > 4 mM (inactive)
Cc1noc(C)c1C(=O)N1CCC2(CC1)OCCO2 | > 4 mM (inactive)
Cc1cc(C(=O)NC(C)c2ccncc2)cs1 (stereo unspecified) | > 4 mM (inactive)
COc1cc2c(cc1OC)[C@@H]1C(=O)c3ccc4c(c3O[C@@H]1CO2)CC(C(C)C)O4 (stereo partly specified) | > 4 mM (inactive)
C[C@H]1C(=O)O[C@@H]2CCN3CC=C(COC(=O)[C@](C)(O)[C@]1(C)O)[C@H]23 | > 4 mM (inactive)
c1coc(CNc2nc(-c3ccncc3)cs2)c1 | > 4 mM (inactive)
Cc1occc1C(=O)NCc1ccccn1 | > 4 mM (inactive)
OCCOc1ccc(C2=NCCO2)cc1 | > 4 mM (inactive)
Cc1cc(=O)n(C(N)=S)[nH]1 | > 4 mM (inactive)

SMILES | Kd
CC1=NN2C(=N)/C(=C\c3cccs3)C(=O)N=C2S1 | > 4 mM (inactive)
Cc1ccccc1-n1c(-c2ccncc2)n[nH]c1=S | > 4 mM (inactive)
O=C(NC1=NCCS1)c1csc2ccccc12 | > 4 mM (inactive)
O=c1nc(C(F)(F)F)nc2ccccn12 | > 4 mM (inactive)
Cc1nn(CC(=O)N2CCCCC2)c(=O)c2ccccc12 | > 4 mM (inactive)
O=C1NC(=Nc2ccccc2)S/C1=C/c1cccnc1 | > 4 mM (inactive)
COC(=O)N(c1ccccc1)P1(=S)OCCO1 | > 4 mM (inactive)
CNC(=O)c1ccc([N+](=O)[O-])cc1Cl | > 4 mM (inactive)
CSc1ncc(C(=O)O)n1Cc1ccccc1 | > 4 mM (inactive)
Cc1occc1C(=O)NCc1ccncc1 | > 4 mM (inactive)
O=C(Nc1ccc2ccccc2c1)c1cnccn1 | > 4 mM (inactive)
O=C(O)c1cc2ccccc2s1 | > 4 mM (inactive)
C=C1C([C@]2(C)C(CC(=O)OC)[C@@](C)(COC(C)=O)OC(=O)C[C@@H]2OC(C)=O)[C@@H](OC=O)[C@H](OC(=O)C(O)C(C)CC)[C@@]2(C)[C@H](c3ccoc3)CC(=O)C12O (stereo partly specified) | > 4 mM (inactive)
CCOC(=O)C1=C(C)N2CCN=C2S1 | > 4 mM (inactive)
O=C(Nc1cnccn1)c1ccncc1 | > 4 mM (inactive)
COc1cc(OC)c2c(OC)c(-c3ccc4c(c3)OCO4)c(=O)oc2c1 | > 4 mM (inactive)
NC1CN2CCC1CC2 (stereo unspecified) | > 4 mM (inactive)
C=CC(=O)N1CC2CC(C1)c1cccc(=O)n1C2 (stereo unspecified) | > 4 mM (inactive)
c1ccc(-c2nsc(N3CCNCC3)n2)cc1 | > 4 mM (inactive)
CNC(=S)Nc1ncn(Cc2cccc(F)c2)n1 | > 4 mM (inactive)
Fc1cccc(Cl)c1CN1CCNCC1 | > 4 mM (inactive)
CC(=O)NC(c1ccccc1)c1cccnc1 (stereo unspecified) | > 4 mM (inactive)
COc1ccc2[nH]c(O)c(NC(C)=O)c2c1 | > 4 mM (inactive)
Cc1cccc(C(C)C)c1NC(=O)c1cccnc1 | > 4 mM (inactive)

SMILES | Kd
CCOC(=O)c1c(C)cc(O)c(C)c1O | > 4 mM (inactive)
COc1cccc(C(=O)Nc2c(C)n[nH]c2C)c1 | > 4 mM (inactive)
COc1c(O)cc2c(c1O)[C@H]1O[C@H](CO)[C@@H](O)[C@H](O)[C@@H]1OC2=O | > 4 mM (inactive)
CN(C)N1C(=O)C2C3C=CC(O3)C2C1=O (stereo unspecified) | > 4 mM (inactive)
N=Cc1c(O)n(-c2cccc(Cl)c2)c(=O)[nH]c1=O | > 4 mM (inactive)
COc1cccc(-c2nc3ccc(O)cc3c(=O)o2)c1 | > 4 mM (inactive)
CCn1c(C)c(C(C)=O)c(N2CCOCC2)nc1=S | > 4 mM (inactive)
COc1ccc2ccc(=O)oc2c1 | > 4 mM (inactive)
Cc1occc1C(=O)Nc1nnc(-c2ccncc2)s1 | > 4 mM (inactive)
O=S(=O)(Nc1cc(Cl)cc(Cl)c1)N1CCOCC1 | inactive
O=C(O)CSc1nc2ccccc2c(=O)[nH]1 | > 4 mM (inactive)
OCC12COC3c4ccccc4C(OC1)N32 (stereo unspecified) | > 4 mM (inactive)
OCc1ccc2c(c1)OCCCO2 | > 4 mM (inactive)
CC(=O)Nc1ccc(C)cc1NC(C)=O | > 4 mM (inactive)
CN1CCN(CC(=O)Nc2ccccc2)CC1 | > 4 mM (inactive)
CCOc1ccc(C)cc1S(=O)(=O)n1ccc(C)n1 | > 4 mM (inactive)
COc1cc(/C=C/C(=O)O)cc(OC)c1OC | > 4 mM (inactive)
COc1cc(OC)c(-c2c(OC)cc(OC)cc2OC)c(OC)c1 | > 4 mM (inactive)
C(=N\c1nccs1)/c1cccnc1 | > 4 mM (inactive)
C/C=C(\C)c1nnc(NC(=O)C(C)C)s1 | > 4 mM (inactive)
O=C(O)CC(O)c1nc2ccccc2[nH]1 (stereo unspecified) | > 4 mM (inactive)
O=C(NCCCSc1ncccn1)Nc1ncccn1 | > 4 mM (inactive)
CC1CN(C(=O)CSc2ccccc2)CC(C)O1 (stereo unspecified) | inactive
Cc1ccc(Cl)cc1NS(=O)(=O)N1CCCCC1 | inactive

SMILES | Kd
O=[N+]([O-])c1c[n+]([O-])n(-c2ccccc2)n1 | > 4 mM (inactive)
NCc1ccc(-n2cccc2)cc1 | > 4 mM (inactive)
CN(C)c1nc(N2CCOCC2)nc(N2CCOCC2)n1 | > 4 mM (inactive)
CN1CCC(NC(=O)Cc2c(F)cccc2Cl)CC1 | > 4 mM (inactive)
CC1=NNC(=O)C1CCc1ccncc1 (stereo unspecified) | > 4 mM (inactive)
O=C(NCc1ccco1)c1nc2ncccn2n1 | > 4 mM (inactive)
Cn1c(=O)c2c(ncn2C)n(C)c1=O | > 4 mM (inactive)
CN1CCN(c2ccc(C(=O)O)cc2)CC1 | > 4 mM (inactive)
NC1=NC(=O)C(Cc2cccc([N+](=O)[O-])c2)S1 (stereo unspecified) | > 4 mM (inactive)
O=C(c1ccco1)N1CCn2c1nc1ccccc12 | > 4 mM (inactive)
Cc1occc1C(=O)NCc1ccccc1F | > 4 mM (inactive)
Cn1c(=O)c2c(ncn2CCN)n(C)c1=O | > 4 mM (inactive)
CC1=C(/C=C/C(C)=C/C=C/C(C)=C/C=C/C=C(C)/C=C/C=C(C)/C=C/C2=C(C)CCCC2(C)C)C(C)(C)CCC1 | > 4 mM (inactive)
Nc1ccc(Cl)nn1 | > 4 mM (inactive)
Cc1nc2ccccc2c(=O)n1-c1cccc(O)c1 | > 4 mM (inactive)
OCn1nnn(-c2ccccc2)c1=S | > 4 mM (inactive)
CC(=O)NC(=S)Nc1cccc(C(=O)O)c1C | > 4 mM (inactive)
CN1CCN(C2CCSC2)CC1 (stereo unspecified) | > 4 mM (inactive)
O=C(Nc1cccc(Cl)c1)c1ccncc1 | > 4 mM (inactive)
CC1=CC2C(CC1=O)C(C)=CCC2C(C)C (stereo unspecified) | > 4 mM (inactive)
Cc1noc(C)c1C(=O)NCc1ccco1 | > 4 mM (inactive)
Nc1nc2ncc(CNc3ccc(C(=O)N[C@@H](CCC(=O)O)C(=O)O)cc3)nc2c(=O)[nH]1 | > 4 mM (inactive)
Cc1nc(-c2cnccn2)sc1C(=O)O | > 4 mM (inactive)
Cc1nnsc1C(=O)O | > 4 mM (inactive)

SMILES | Kd
CC(=O)Nc1ccccc1OCC(N)=O | > 4 mM (inactive)
CCn1c2ccccc2c2nn(C)c(=N)nc21 | > 4 mM (inactive)
COc1cc(O)c2c(=O)cc(-c3ccc(OC)c(-c4c(O)cc(O)c5c(=O)cc(-c6ccc(O)cc6)oc45)c3)oc2c1 | > 4 mM (inactive)
Oc1ccccc1N1CCOCC1 | > 4 mM (inactive)
O=C1C2C3C=CC(C3)C2C(=O)N1c1cccnc1 (stereo unspecified) | > 4 mM (inactive)
O=c1cc(-c2ccccc2)oc2cc(O)cc(O)c12 | > 4 mM (inactive)
COc1cc(S(=O)(=O)Nc2cccnc2)ccc1F | > 4 mM (inactive)
Nc1ccc2c(c1)CCCC2=O | > 4 mM (inactive)
NC(=O)c1ccc(N2CCCCC2)c(N)c1 | > 4 mM (inactive)
O=C(Nc1ccc2c(c1)OCO2)c1cccc(F)c1 | > 4 mM (inactive)
CN1C(=O)C2C=CC1C1C(=O)N(c3ccccc3)C(=O)C21 (stereo unspecified) | > 4 mM (inactive)
CNC(=O)c1cc(C)c(-c2ccccc2)s1 | > 4 mM (inactive)
O=C(/C=C/C=C/c1ccc2c(c1)OCO2)N1CCCCC1 | > 4 mM (inactive)
CC1(C)N=C2C(=N)C=CC=C2N1O | > 4 mM (inactive)
Cc1ccc(N2C(=O)CC(=O)NC2=O)cc1 | > 4 mM (inactive)
NC(N)=NCCCCN=C(N)N | > 4 mM (inactive)
N#Cc1cn(CC(=O)N2CCCC2)c2ccccc12 | > 4 mM (inactive)
CCNC(CC(=O)Nc1ccc(F)cc1)C(=O)O (stereo unspecified) | > 4 mM (inactive)
Nc1nnc(C(F)(F)F)s1 | > 4 mM (inactive)
CNC(=O)C1CC(=O)N(c2ccc(O)cc2)C1 (stereo unspecified) | > 4 mM (inactive)
